In brackets after ≈: the same amount, converted by molar mass.
Tests used:
KG-1 = assay: Antiproliferative activity against human KG1 cells; assay type: functional, cell-based
[1] = target: T1, Serine/threonine-protein kinase pim-1 (Homo sapiens, UniProt P11309); assay: Inhibition of PIM1 (unknown origin) assessed as reduction in BAD phosphorylation at Ser112 residues by TR-FRET assay
[2] = target: Serine/threonine-protein kinase pim-2 (Homo sapiens, UniProt Q9P1W9); assay: Inhibition of PIM2 (unknown origin) assessed as reduction in BAD phosphorylation at Ser112 residues by TR-FRET assay
[3] = target: T1, Serine/threonine-protein kinase pim-1; assay: Inhibition of PIM1 in human KG1 cells assessed as reduction in BAD phosphorylation; assay type: cell-based
[4] = Permeability from apical to basolateral side in human Caco2/TC7 cells at 5 uM; assay type: ADME, cell-based; details: Caco-2, read-out: permeability
[5] = target: Voltage-gated inwardly rectifying potassium channel KCNH2 (Homo sapiens, UniProt Q12809); assay: Inhibition of human ERG by patch clamp assay
[6] = Thermodynamic solubility of the compound at pH 7.4; assay type: physicochemical; details: buffer, read-out: Therm_solubility
Liver [7] = assay: Stability in human liver microsomes; assay type: ADME, microsome
Liver [8] = assay: Stability in rat liver microsomes; assay type: ADME, microsome
Liver [9] = assay: Stability in mouse liver microsomes; assay type: ADME, microsome
Cytochrome P450 3A4 [10] = target: T2, Cytochrome P450 3A4 (Homo sapiens, UniProt P08684); assay: Inhibition of CYP3A4 (unknown origin) using midazolam as substrate; assay type: ADME
Cytochrome P450 3A4 [11] = target: T2, Cytochrome P450 3A4; assay: Inhibition of CYP3A4 (unknown origin) using testosterone as substrate; assay type: ADME
[12] = AUC (0 to infinity) in rat at 3 mg/kg, iv administered as single dose; assay type: ADME, organism-based; design: dose 3 mg/kg, route intravenous, time infinity; details: in vivo
[13] = AUC (0 to infinity) in rat at 10 mg/kg, po administered as single dose; assay type: ADME, organism-based; design: dose 10 mg/kg, time infinity, route oral; details: in vivo
[14] = Cmax in rat at 10 mg/kg, po administered as single dose; assay type: ADME, organism-based; design: dose 10 mg/kg, route oral; details: in vivo
[15] = Half life in rat at 3 mg/kg, iv administered as single dose; assay type: ADME, organism-based; details: in vivo
[16] = Clearance in rat at 3 mg/kg, iv administered as single dose; assay type: ADME, organism-based; details: in vivo
[17] = Volume of distribution at steady state in rat at 3 mg/kg, iv administered as single dose; assay type: ADME, organism-based; details: in vivo, read-out: Vdss
Mus musculus [18] = assay: In vivo inhibition of PIM1 in SCID mouse xenografted with human KG1 cells assessed as reduction in BAD phosphorylation at 25 mg/kg, po administered as single dose measured at 8 hrs relative to control; assay type: functional; details: KG-1, po
Mus musculus [19] = assay: In vivo inhibition of PIM1 in SCID mouse xenografted with human KG1 cells assessed as reduction in BAD phosphorylation at 25 mg/kg, po administered as single dose measured at 24 hrs relative to control; assay type: functional; details: KG-1, po
[20] = Plasma concentration in SCID mouse xenografted with human KG1 cells at 25 mg/kg, po administered as single dose measured at 8 hrs; assay type: ADME, organism-based
[21] = Plasma concentration in SCID mouse xenografted with human KG1 cells at 25 mg/kg, po administered as single dose measured at 24 hrs; assay type: ADME, organism-based
[22] = Drug uptake in tumor of SCID mouse xenografted with human KG1 cells at 25 mg/kg, po administered as single dose measured at 8 hrs; assay type: ADME, organism-based, Neoplasm; details: read-out: Drug uptake
[23] = Drug uptake in tumor of SCID mouse xenografted with human KG1 cells at 25 mg/kg, po administered as single dose measured at 24 hrs; assay type: ADME, organism-based, Neoplasm; details: read-out: Drug uptake
[24] = Protein binding in human plasma; assay type: ADME, cell-free; details: read-out: PPB
[25] = Protein binding in rat plasma; assay type: ADME, cell-free; details: read-out: PPB
[26] = Protein binding in mouse plasma; assay type: ADME, cell-free; details: read-out: PPB

## NC(=O)c1cc(Cl)c2c(Cl)c(C3CC3)n([C@H]3CCCNC3)c2n1
KG-1
  IC50: 0.062 µM
[1]
  IC50: 0.001 µM
[2]
  IC50: 0.006 µM
[3]
  IC50: 0.043 µM
[4]
  Papp A→B at 5 µM: 38 nm/s
[5]
  IC50: 2.9 µM
[6]
  solubility thermodynamic: 225 µM (≈ 79.5 µg/mL)
Liver [7]
  Stability: 1%
Liver [8]
  Stability: 6%
Liver [9]
  Stability: 10%
Cytochrome P450 3A4 [10]
  IC50: > 30 µM
Cytochrome P450 3A4 [11]
  IC50: 21 µM
[12]
  AUC(0-inf): 2.62 µg·h/mL
[13]
  AUC(0-inf): 7.45 µg·h/mL
[14]
  Cmax: 0.39 µg/mL
[15]
  half-life: 13.6 h
[16]
  clearance: 1.1 L/h/kg
[17]
  Vd: 20.9 L/kg
Mus musculus [18]
  inhibition in vivo at 25 mg/kg: 60 to 65%
Mus musculus [19]
  inhibition in vivo at 25 mg/kg: 61%
[20]
  concentration at 8 h: 18.9 µM
[21]
  concentration at 24 h: 8.21 µM
[22]
  concentration at 8 h: 101 µM
[23]
  concentration at 24 h: 99 µM
[24]
  fraction unbound: 0.01
[25]
  fraction unbound: 0.01
[26]
  fraction unbound: 0.01

— ChEMBL document CHEMBL4043238, “Discovery of N-substituted 7-azaindoles as Pan-PIM kinase inhibitors - Lead series identification - Part II” (Bioorg Med Chem Lett, 2017)
